Test system: resting carbohydrate metabolism
Assay: Resting metabolism by indirect calorimetric measurement in patients after pulsed IV insulin boluses with oral carbohydrate load
Format: in vivo, human
Description: A basic treatment sequence, in one preferred embodiment, is as follows. • Settle the patient and establish an intravenous (IV) flow. • Measure blood glucose. • From Table 1, arrange for the specified grams of glucose be made available to the patient. • Have the patient consume the glucose relatively quickly (time scale of minutes). Drinking an appropriate amount of GLUCOLA at a convenient rate, such as over about 30 to 90 seconds, is a useful range and route of administration. • Start IV boluses of hormone. Insulin is a useful and typical hormone for this application. • Administer hormone at the selected quantity, rate, and pattern. These details are discussed in more detail in the following sections. A typical sequence will administer the selected amount of insulin (milliunits, determined as per kilogram body weight of the patient). A useful bolus is fairly quick, such as less than five seconds. Bolus injections are repeated periodically. A useful scheme is to give boluses every six minutes, over the course of one hour. It can be useful to give boluses more rapidly. Every four minutes is a useful number. Spacing of approximately three to approximately ten minutes can be useful, and we have not tested the outer ranges of usefulness.
One useful way of assessing metabolic activity and health is to measure the volume of Carbon Dioxide Production and a […]. In example (a) below, CO2 production initially equals 0.124 L per 30 seconds of exhaled breath, with a Resting Energy Ratio of 0.66. The ratio is how one can test the amount of carbohydrate metabolized and thus producing ATP to verify the patient is metabolizing carbohydrates. Below […] is lipid metabolism, and above […] is carbohydrate metabolism.
It is useful for the metabolic assessment of the present invention to express exhaled CO2 in volume/time, such as L/30 sec. This assessment varies by patient, according to their size, lung capacity and other factors understood by one skilled in the art of pulmonary function and metabolism.
A useful tool for assessing this is from Vacuumed. The Vacuumed website (www) vacuumed (corn) includes a good discussion of the resting metabolism measurement. • VO2=oxygen uptake (ml/min) • VCO2=carbon dioxide output (ml/min) • Respiratory quotient (RQ)=VCO2/VO2
• a. The treatment form has 3 one-hour sessions with from 10 to 60 minutes rest between treatments. • b. TREATMENT GOAL: The goal of the treatment is to obtain increased ATP production from carbohydrates, by metabolizing approximately 100 g of glucose for each hour including the rest period. A desirable treatment blood glucose for oral carbohydrates is 150 mg/dl or 8.3 mmol/L of blood glucose. That equates to approximately 380 calories of carbohydrates for each 1-hour treatment session, or a total of 1,140 calories total for the 4.5 to 5.5 hours. • c. In one embodiment, patients' serum glucose level is monitored every thirty minutes to determine carbohydrate uptake and utilization. Resting metabolic measurement by an indirect calorimeter such as the Vacuumed Metabolic Measurement system provides the level of production of ATP from carbohydrates to validate the increase. • d. In order to maintain serum glucose levels sufficient to provide for a carbohydrate load for the production of ATP, the serum glucose is maintained at 150 mg/dl or 8.3 mmol/L or more by starting at 10 milliunits per kilo and increasing by 2 milliunits each 30 minutes until the desired level is achieved. This level is constantly adjusted each 30 minutes until the nominal load is obtained, and then continues for the remainder of the treatment, and is used for subsequent treatments.
a. In a preferred implementation, these patients: • i. Were checked for serum blood glucose (BG) about every 30 minutes, and for about 4.5 hours. • ii. Were given glucose averaging approximately 1,200 calories over that time. • iii. […]

insulin
increase in ATP from carbohydrates (person with Alzheimer's Disease, 83 kg, three one-hour sessions, total 33 units insulin, 14 milliunits/kg): approximately 38%
Carbon Dioxide Production after treatment (person with Alzheimer's Disease, 83 kg, three one-hour sessions, total 33 units insulin, 14 milliunits/kg, baseline 0.151): 0.208 L per 30 seconds
Resting Energy Ratio after treatment (person with Alzheimer's Disease, 83 kg, three one-hour sessions, total 33 units insulin, 14 milliunits/kg, baseline 0.79): 0.99
increase in ATP from carbohydrates (person, 50.5 kg, three one-hour sessions, total 42 units insulin, 28 milliunits/kg): approximately 280%
Carbon Dioxide Production after treatment (person, 50.5 kg, three one-hour sessions, total 42 units insulin, 28 milliunits/kg, baseline 0.121): 0.342 L per 30 seconds
Resting Energy Ratio after treatment (person, 50.5 kg, three one-hour sessions, total 42 units insulin, 28 milliunits/kg, baseline 0.67): 0.98
increase in ATP from carbohydrates (person, 70 kg, three one-hour sessions, total 45 units insulin, 22 milliunits/kg): approximately 320%
Carbon Dioxide Production after treatment (person, 70 kg, three one-hour sessions, total 45 units insulin, 22 milliunits/kg, baseline 0.091): 0.293 L per 30 seconds
Resting Energy Ratio after treatment (person, 70 kg, three one-hour sessions, total 45 units insulin, 22 milliunits/kg, baseline 0.63): 0.98
Carbon Dioxide Production after treatment (person, 85 kg, three one-hour sessions plus rest cycles, total 63 units insulin, 25 milliunits/kg, baseline 0.124): 0.255 L per 30 seconds
increase in ATP from carbohydrates (person, 85 kg, three one-hour sessions, total 63 units insulin, 25 milliunits/kg): approximately 205%
Resting Energy Ratio after treatment (person, 85 kg, three one-hour sessions, total 63 units insulin, 25 milliunits/kg, baseline 0.66): 0.96

From patent publication US20140243261A1, “Method for treating diabetes and fatty liver disese by stimulating cellular metabolism” (priority 2013, published 2014)
